According to patent EP3628659A1, “SELENOESTER-CONTAINING COMPOUNDS FOR USE IN THE TREATMENT OF MICROBIAL INFECTIONS OR COLORECTAL CANCER” (Consejo Superior De Investigaciones Científicas, priority 2018, dated 2020):
Where two headings read alike, the source gives them in different places.

Columns and labels:
Saccharomyces cerevisiae = assay: Antifungal activity (optical density), Saccharomyces cerevisiae; format: cell-based
Method: (§1) The compounds were tested for their antifungal and nematicidal properties against the fungi Candida albicans and Saccharomyces cerevisiae, and against the nematode Steinernema feltiae.
(§2) Fungal cell densities were determined by measuring the optical density (OD) at 570 nm at 0 h (first measurement immediately after incubation), 4 h, and 24 h after incubation at 37 °C; and using a Universal Microplate Reader, EL800, Biotech Instruments, Inc. Highland Park, Winooski, VT, USA. Compounds were dissolved in 1% DMSO and were tested at final concentrations of 50, 100, 150, and 200 µM. Nutrient Sabouraud Dextrose (SD), and Yeast Peptone Dextrose (YPD) were used as media for C. albicans, and S. cerevisiae, respectively. Ketoconazole was used as the positive control for C. albicans and S. cerevisiae. The growth culture with medium for each organism was used as the negative control. The Solvent 1% DMSO stock was used as a solvent control. All experiments were carried out in triplicate and on three different occasions (n = 9).
(§3) For the three organisms considered (C. albicans, S. cerevisiae and S. feltiae), the inhibitory concentration 50% (IC50) is defined as the concentration that inhibits the viability of the respective organism to a 50% of the viability determined for the negative control.

ABCB1 efflux pump = molecular target: T1, ABCB1 efflux pump (Homo sapiens, UniProt P08183); assay: Rhodamine 123 assay of inhibition of MDR efflux pumps (flow cytometry); format: cell-based; settings: Quotient = 100 × FARcompound/FARverapamil, verapamil 20 µM, Colo 320 vs Colo 205; for Inhibition of efflux pumps At 2 µM concentration: compound 2 µM; for Inhibition of efflux pumps At 20 µM concentration: compound 20 µM
T1 construct: The colonic adenocarcinoma cells (the doxorubicin-sensitive Colo 205 and the multidrug resistant Colo 320); host or cells: Colo 320/MDR-LRP (multidrug resistant), with Colo 205 (ATCC-CCL-222) as the sensitive parental comparator
T1 sequence (P08183 whole entry): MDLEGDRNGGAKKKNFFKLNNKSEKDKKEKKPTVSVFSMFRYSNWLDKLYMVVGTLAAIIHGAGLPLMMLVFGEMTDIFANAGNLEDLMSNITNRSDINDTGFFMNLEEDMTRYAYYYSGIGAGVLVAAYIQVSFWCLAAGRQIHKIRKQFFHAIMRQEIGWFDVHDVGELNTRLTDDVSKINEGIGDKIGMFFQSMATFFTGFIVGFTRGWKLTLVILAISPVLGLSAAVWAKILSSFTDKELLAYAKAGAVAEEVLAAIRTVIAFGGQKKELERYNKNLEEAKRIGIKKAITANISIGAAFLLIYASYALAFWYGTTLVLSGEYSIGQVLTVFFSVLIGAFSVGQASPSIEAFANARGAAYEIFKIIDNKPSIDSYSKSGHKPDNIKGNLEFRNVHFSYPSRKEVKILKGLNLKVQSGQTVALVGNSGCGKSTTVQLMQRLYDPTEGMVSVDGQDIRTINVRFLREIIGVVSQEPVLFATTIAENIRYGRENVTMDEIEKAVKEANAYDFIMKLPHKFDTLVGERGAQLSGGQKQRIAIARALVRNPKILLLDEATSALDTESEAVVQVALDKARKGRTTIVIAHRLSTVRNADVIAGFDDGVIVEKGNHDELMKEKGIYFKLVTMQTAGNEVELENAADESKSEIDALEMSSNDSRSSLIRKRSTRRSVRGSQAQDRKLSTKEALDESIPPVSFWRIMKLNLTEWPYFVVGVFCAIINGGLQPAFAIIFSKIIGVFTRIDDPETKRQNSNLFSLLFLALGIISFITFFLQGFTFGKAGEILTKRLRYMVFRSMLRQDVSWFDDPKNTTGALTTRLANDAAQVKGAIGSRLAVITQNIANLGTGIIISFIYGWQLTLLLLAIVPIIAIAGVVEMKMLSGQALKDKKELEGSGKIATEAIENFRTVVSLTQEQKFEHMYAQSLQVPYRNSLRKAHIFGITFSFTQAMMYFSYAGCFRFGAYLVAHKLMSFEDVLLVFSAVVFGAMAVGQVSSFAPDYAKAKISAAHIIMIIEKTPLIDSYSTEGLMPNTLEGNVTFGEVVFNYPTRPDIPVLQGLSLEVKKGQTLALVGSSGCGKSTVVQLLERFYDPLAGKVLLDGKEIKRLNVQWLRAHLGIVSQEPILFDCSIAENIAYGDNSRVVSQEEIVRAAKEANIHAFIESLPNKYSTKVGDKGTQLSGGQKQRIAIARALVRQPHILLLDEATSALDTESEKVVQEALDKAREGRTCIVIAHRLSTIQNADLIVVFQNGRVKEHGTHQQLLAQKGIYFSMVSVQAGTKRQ
Method: This method, described in Gajdács et al, 2017, Bioorg Med Chem Lett. 27(4): 797-802, is a fluorescence-based detection system which uses verapamil as reference inhibitor of the ABCB1 efflux pump. The colonic adenocarcinoma cells (the doxorubicin-sensitive Colo 205 and the multidrug resistant Colo 320) were adjusted to a density of 2×10^6/mL, re-suspended in serum-free RPMI 1640 medium and distributed in 0.5 mL aliquots into Eppendorf centrifuge tubes. Selenocompounds (1 and 10 µL from a stock solution of 1 mM, respectively) were added at different concentrations (2 µM and 20 µM final concentrations, respectively), and the samples were incubated for 10 min at room temperature. Next, 10 µL (5.2 µM final concentration) of rhodamine 123 was added to the samples and the cells were incubated for 20 minutes at 37°C, washed twice with phosphate buffered saline (PBS) and re-suspended in 1 mL PBS for analysis. The fluorescence intensity of the cell population was measured with a Partec CyFlow flow cytometer (Partec, Munster, Germany). Verapamil was used as a positive control at 20 µM final concentration in the rhodamine 123 exclusion experiments. The mean fluorescence intensity (%) was calculated for the treated multidrug resistance (MRD) Colo 320 and sensitive Colo 205 cell lines as compared to the untreated cells. The fluorescence activity ratio (FAR) was calculated based on the following equation which relates the measured fluorescence values: FAR = (MDRtreated /MDRcontrol)/(parentaltreated /parentalcontrol); Quotient = 100 × (FARcompound/FARverapamil) [formula]

[1] = Cytotoxicity assay (MTT) in non-tumoral MRC-5 cells; format: cell-based; settings: human, IC50 class, non-tumoral cell line; for IC50 at 24 h: MRC-5 embryonal lung fibroblast cells (non-tumoral)
Method: (§4) Cytotoxicity assays in human colonic adenocarcinoma cell lines Colo 205 doxorubicin-sensitive (ATCC-CCL-222) and Colo 320/MDR-LRP multidrug resistant overexpressing ABCB1 (MDR1)-LRP (ATCC-CCL-220.1) were performed following the procedure described by Gajdács et al, 2017, Bioorg Med Chem Lett. 27(4): 797-802. The effects of increasing concentrations of selenium compounds on cell growth were tested in 96-well flat-bottomed microtiter plates. The selectivity of the action towards cancer cells was assessed through the evaluation of cytotoxic activity in a non-tumoral cell line, the MRC-5 human embryonal lung fibroblast cell lines (ATCC CCL-171), as described in Gajdács et al, 2017, Bioorg Med Chem Lett. 27(4): 797-802.
(§5) All cell lines were purchased from LGC Promochem, Teddington, UK. The colonic cells were cultured in RPMI 1640 medium supplemented with 10% heat-inactivated fetal bovine serum, 2 mM L-glutamine, 1 mM Na-pyruvate and 100 mM Hepes. The cell lines were incubated at 37°C, in a 5% CO2, 95% air atmosphere. The semi-adherent human colon cancer cells were detached with Trypsin-Versene (EDTA) solution for 5 min at 37°C. Alternatively, MRC-5 cells was cultured in Eagle's Minimal Essential Medium (EMEM, containing 4.5 g/L glucose) supplemented with a non-essential amino acid mixture, a selection of vitamins and 10% heat-inactivated fetal bovine serum. The cell lines were incubated at 37°C, in a 5% CO2, 95% air atmosphere.
(§6) The compounds were diluted in a volume of 100 µL of medium. The two-fold serial dilutions of selenocompounds were prepared in 100 µL of RPMI 1640, horizontally. The semi-adherent colonic adenocarcinoma cells were treated with Trypsin-Versene (EDTA) solution. They were adjusted to a density of 2×10^4 cells in 100 µL of RPMI 1640 medium, and were added to each well, with the exception of the medium control wells. The final volume of the wells containing selenocompounds and cells was 200 µL.
(§7) The culture plates were incubated at 37°C for 24 h; at the end of the incubation period, 20 µL of MTT (thiazolyl blue tetrazolium bromide, Sigma) solution (from a stock solution of 5 mg/mL) were added to each well. After incubation at 37°C for 4 h, 100 µL of sodium dodecyl sulfate (SDS) (Sigma) solution (10% in 0.01 M HCI) were added to each well and the plates were further incubated at 37°C overnight. Cell growth was determined by measuring the optical density (OD) at 540/630 nm with Multiscan EX ELISA reader (Thermo Labsystems, Cheshire, WA, USA). Inhibition of the cell growth was determined according to the formula below: […] = 100−[(OD sample−OD medium control)/(OD cell control−OD medium control)] × 100 [formula]
(§8) Results are expressed in terms of IC50, defined as the inhibitory dose that reduces the growth of the cells exposed to the tested compounds by 50%. Regarding the selectivity, the selectivity indexes (SI) were calculate, being SI the quotient of the IC50 in non-tumoral cells (MRC-5) and the respective cancer cell (Colo-205 or Colo-320). Compound is considered moderately selective when SI < 6 and ≥ 3; and strongly selective when SI ≥ 6.

Candida albicans = assay: Antifungal activity (optical density), Candida albicans; format: cell-based; settings: IC50 class, tested at 50, 100, 150 and 200 µM, OD 570 nm, 37 °C
Method: as §1, §2, §3

[2] = test system: Colo 205 doxorubicin-sensitive; assay: Cytotoxicity assay (MTT) in Colo 205 cells; format: cell-based, human; settings: for IC50: Homo sapiens, COLO 205, 24 h, read-out: Colo 205 Cytotoxicity; for SI (MRC-5/Colo205): quotient of IC50 in MRC-5 and IC50 in Colo-205
Method: as §4, §5, §6, §7, §8

[3] = read-out: Antifungal activity Saccharomyces cerevisiae, IC50 class, tested at 50, 100, 150 and 200 µM, OD 570 nm, 37 °C, read-out: Antifungal activity Streptomyces cerevisiae

| Structure (SMILES) | IC50 (Saccharomyces cerevisiae; [3]) | Inhibition of efflux pumps At 2 µM concentration (ABCB1 efflux pump) | Inhibition of efflux pumps At 20 µM concentration (ABCB1 efflux pump) | IC50 at 24 h [1] | IC50 (Candida albicans) | IC50 [2] | SI (MRC-5/Colo205) [2] | IC50 (Saccharomyces cerevisiae; read-out: Antifungal activity Saccharomyces cerevisiae) | CC50 ([1]; mrc-5 cells) |
| --- | --- | --- | --- | --- | --- | --- | --- | --- | --- |
| N#CC[Se]C(=O)c1ccc(C(=O)[Se]CC#N)cc1 [Compound 18, Se,Se-bis-(cyanomethyl) benzene-1,4-bis-(carboselenoate)] | > 100 µM | ** (Potent inhibitors of MDR efflux pumps: 100% ≤ Quotient < 200% (from 1- to 2-fold more potent than reference verapamil)) | ** (Potent inhibitors of MDR efflux pumps: 100% ≤ Quotient < 200% (from 1- to 2-fold more potent than reference verapamil)) | > 50 µM | 50 to 100 µM | 1 to 10 µM | *** (Strongly selective compounds: SI ≥ 6) | – | – |
| CC(=O)C[Se]C(=O)c1cc(C(=O)[Se]CC(C)=O)cc(C(=O)[Se]CC(C)=O)c1 [Compound 24, Se,Se,Se-tris-(2-oxopropyl) benzene-1,3,5-tris-(carboxyselenoate)] | > 100 µM | *** (Very potent inhibitors of MDR efflux pumps: Quotient ≥ 200% (≥ 2-fold more potent than reference verapamil)) | *** (Very potent inhibitors of MDR efflux pumps: Quotient ≥ 200% (≥ 2-fold more potent than reference verapamil)) | < 1 µM | > 100 µM | < 1 µM | * (Slightly selective compounds: 1 ≤ SI < 3) | – | – |
| N#CC[Se]C(=O)c1cc(C(=O)[Se]CC#N)cc(C(=O)[Se]CC#N)c1 [Compound 20, Se,Se,Se-tris-(cyanomethyl) benzene-1,3,5-tris-(carboxyselenoate)] | 10 to 50 µM | ** (Potent inhibitors of MDR efflux pumps: 100% ≤ Quotient < 200% (from 1- to 2-fold more potent than reference verapamil)) | ** (Potent inhibitors of MDR efflux pumps: 100% ≤ Quotient < 200% (from 1- to 2-fold more potent than reference verapamil)) | > 50 µM | 10 to 50 µM | < 1 µM | *** (Strongly selective compounds: SI ≥ 6) | – | – |
| CC(=O)C[Se]C(=O)c1ccc(C(=O)[Se]CC(C)=O)cc1 [Compound 22, Se,Se-bis-(2-oxopropyl) benzene-1,4-bis-(carboselenoate)] | 50 to 100 µM | *** (Very potent inhibitors of MDR efflux pumps: Quotient ≥ 200% (≥ 2-fold more potent than reference verapamil)) | *** (Very potent inhibitors of MDR efflux pumps: Quotient ≥ 200% (≥ 2-fold more potent than reference verapamil)) | < 1 µM | 10 to 50 µM | < 1 µM | * (Slightly selective compounds: 1 ≤ SI < 3) | – | – |
| CC(=O)C[Se]C(=O)c1cccc(C(=O)[Se]CC(C)=O)c1 [Compound 23, Se,Se-bis-(2-oxopropyl) benzene-1,3-bis-(carboselenoate)] | > 100 µM | *** (Very potent inhibitors of MDR efflux pumps: Quotient ≥ 200% (≥ 2-fold more potent than reference verapamil)) | *** (Very potent inhibitors of MDR efflux pumps: Quotient ≥ 200% (≥ 2-fold more potent than reference verapamil)) | 1 to 10 µM | 10 to 50 µM | < 1 µM | * (Slightly selective compounds: 1 ≤ SI < 3) | – | – |
| N#CC[Se]C(=O)c1cccc(C(=O)[Se]CC#N)c1 [Compound 19, Se,Se-bis-(cyanomethyl)benzene-1,3-bis-(carboselenoate)] | – | ** (Potent inhibitors of MDR efflux pumps: 100% ≤ Quotient < 200% (from 1- to 2-fold more potent than reference verapamil)) | ** (Potent inhibitors of MDR efflux pumps: 100% ≤ Quotient < 200% (from 1- to 2-fold more potent than reference verapamil)) | – | 10 to 50 µM | 1 to 10 µM | *** (Strongly selective compounds: SI ≥ 6) | 10 to 50 µM | > 50 µM |
